Here are results for 2 molecules from patent US20220380383A1, “NEUROPROTECTIVE PDI MODULATING SMALL MOLECULES AND METHODS OF USE THEREOF” (THE TRUSTEES OF COLUMBIA UNIVERSITY IN THE CITY OF NEW YORK, priority 2018, published 2022).

For one data set, the system named is PC12 mHTTQ103 cells. Briefly: Rescue of PC12 cells from mHTTQ103-induced cell death. It counts as cell-based, rat. Conditions: for EC50: Rattus norvegicus, PC-12.
Another data set addresses T1, wild-type PDIa (Homo sapiens, UniProt P07237).
T1 construct: made in house; host or cells: Escherichia coli BL21-Gold (DE3)
Description: MALDI-TOF mass spectrometry with wild-type PDIa. In kind it is binding. The source says:
As mentioned, we synthesized several fluorine-containing analogs of LOC14 (analogs LC-43 and LC-40). Addition of fluorine was the only modification that was tolerated at the ortho position without a complete loss of activity in cells and in targeting PDI in vitro (Table 9). […] We hypothesized that these compounds might be binding to PDI covalently, and therefore would not show heat evolution by calorimetry. To test this hypothesis, we conducted MALDI-TOF mass-spectrometry experiments with wild-type PDIa and LC-43. […] This confirmed that LC-43 did indeed bind to PDIa, and that this binding was […]. The lack of binding by ITC might be again caused because LC-43 interaction with PDI is entropy-driven with small enthalpic changes. […] Additionally, we evaluated LC-43 using a genetically encoded redox reporter transfected into neurons. […] In contrast, treatment with the non-selective reducing agent dithiothreitol (DTT) produces an immediate and dramatic reduction in the roGFP2 fluorescence ratio that leads rapidly to cell degeneration and death (FIG. 16D). […] This single fluorine atom substitution in LOC14 structure seems to be an improvement in the design of compounds with more favorable drug properties.

For data set [1], the system named is neuronal redox state (roGFP2). Briefly: roGFP2 redox reporter in primary neurons. In kind it is cell-based. Here is the method: […]. Rat coronal brain slice explants co-transfected with YFP and Tau-4R (FIG. 16B) or striatal brain slice explants co-transfected with YFP and mHTT (FIG. 16C) were treated with LC-43 or DMSO carrier-only for 3 days. The respective regions of each brain slice were then scored for numbers of healthy (FIG. 16B) pyramidal or (FIG. 16C) medium spiny neurons remaining. Data are normalized to the negative control condition set to 100% and plotted as means±SEM. In FIG. 16D, The confocal images shown are maximal z-stacks of 0.5 μm steps (˜20 images per stack). (Bottom) Reduction of neuronal redox state by LC-43. Left, Primary neurons were co-transfected with mCherry (to positively identify transfected neurons) and the genetically encoded ratiometric redox reporter roGFP2. Four days later, the culture medium was changed into an identical formulation except without conventional antioxidant additives. 24 hours after this medium change, LOC-43 or DMSO carrier-only were added to the neurons and images were taken after 30 minutes or 24 hours of treatment as indicated. Imaging was done using a Leica SP5 inverted confocal microscope through a 63× water-immersion objective. Images of 40 individual neurons for each condition were collected at 405 and 488 nm and analysis of the 405/488 ratio for each image pair was done using CellProfiler (Broad Institute).
As mentioned, we synthesized several fluorine-containing analogs of LOC14 (analogs LC-43 and LC-40). Addition of fluorine was the only modification that was tolerated at the ortho position without a complete loss of activity in cells and in targeting PDI in vitro (Table 9). […] Additionally, we evaluated LC-43 using a genetically encoded redox reporter transfected into neurons. […] In contrast, treatment with the non-selective reducing agent dithiothreitol (DTT) produces an immediate and dramatic reduction in the roGFP2 fluorescence ratio that leads rapidly to cell degeneration and death (FIG. 16D). […]

Data set [2] can be described thus: Solubility (stock solvent).
The next data set addresses Adenosine A1 (Homo sapiens, UniProt P30542). Description: Off-target panel, Adenosine A1. In kind it is binding. The note with it: Conc. 3 μM.
In another data set the target is Dopamine D1 (Homo sapiens, UniProt P21728). Briefly: Off-target panel, Dopamine D1. In kind it is binding. Conditions: Conc. 3 μM.
A further data set addresses Opiate (OP3, MOP) (Homo sapiens, UniProt P35372). Description: Off-target panel, Opiate. In kind it is binding. The note with it: Conc. 3 μM.
Data set [3] deals with Serotonin (5-Hydroxytryptamine) 5-HT2B (Homo sapiens, UniProt P41595). Description: Off-target panel, Serotonin 5-HT2B. Conditions: Conc. 3 μM. In kind it is binding.
In a further data set the target is T2, ADORA2A (Homo sapiens, UniProt P29274).
T2 construct: CEREP (CRO that ran the panel)
Description: Safety47 panel GPCR ADORA2A. It counts as cell-based. The note with it: 3 μM. The text has this:
(§1) LOC14 was also submitted for testing in CEREP's Safety47 panel. CEREP is a CRO specializing in preclinical research, discovery and development of new pharmaceutical drugs.

Data set [4] has as its target T3, CHRM2 (muscarinic acetylcholine receptor M2) (Homo sapiens, UniProt P08172).
T3 construct: CEREP (CRO that ran the panel)
Briefly: Safety47 panel GPCR CHRM2. In kind it is cell-based.
From the text: as §1

The next data set deals with T4, AR (Homo sapiens, UniProt P10275).
T4 construct: CEREP (CRO panel)
Description: Safety47 panel nuclear hormone receptor AR. In kind it is cell-based. Conditions: 3 μM.
From the text: as §1

The target in another data set is T5, DAT (Homo sapiens, UniProt Q01959).
T5 construct: CEREP (CRO panel)
Description: Safety47 panel transporter DAT. It counts as cell-based. Conditions: Blocker mode; 3 μM.
From the text: as §1

The target of another data set is T6, hERG (Homo sapiens, UniProt Q12809).
T6 construct: CEREP (CRO panel)
Description: Safety47 panel ion channel hERG. It counts as cell-based. The note with it: Blocker mode; 3 μM.
From the text: as §1

The target of the next data set is T7, nAChR(a4/b2) (Homo sapiens, UniProt P17787+P43681).
T7 construct: CEREP (CRO panel)
Briefly: Safety47 panel ion channel nAChR(a4/b2). Conditions: 3 μM. In kind it is cell-based.
From the text: as §1

Another data set deals with T8, NAV1.5 (Homo sapiens, UniProt Q14524).
T8 construct: CEREP (CRO panel)
Description: Safety47 panel ion channel NAV1.5. It counts as cell-based. The note with it: Blocker mode; 3 μM.
From the text: as §1

The target of another data set is T9, NMDAR (1A/2B) (Homo sapiens, UniProt Q05586+Q13224).
T9 construct: CEREP (CRO panel)
Description: Safety47 panel ion channel NMDAR (1A/2B). In kind it is cell-based. Conditions: 3 μM.
From the text: as §1

The target of another data set is T10, AChE (Homo sapiens, UniProt P22303).
T10 construct: CEREP (CRO panel)
Description: Safety47 panel non-kinase enzyme AChE. The note with it: Inhibitor mode; 3 μM. It counts as biochemical.
From the text: as §1

A further data set concerns the target T11, COX1 (Homo sapiens, UniProt P23219).
T11 construct: CEREP (CRO panel)
Briefly: Safety47 panel non-kinase enzyme COX1. It counts as biochemical. Conditions: Inhibitor mode; 3 μM.
From the text: as §1

For the next data set, the target named is T12, MAOA (Homo sapiens, UniProt P21397).
T12 construct: CEREP (CRO panel)
Briefly: Safety47 panel non-kinase enzyme MAOA. It counts as biochemical. The note with it: Inhibitor mode; 3 μM.
From the text: as §1

The target in the next data set is T13, PDE4D2 (Homo sapiens, UniProt Q08499).
T13 construct: CEREP (CRO panel)
Briefly: Safety47 panel non-kinase enzyme PDE4D2. In kind it is biochemical. The note with it: Inhibitor mode; 3 μM.
From the text: as §1

The target in a further data set is T14, LCK (Homo sapiens, UniProt P06239).
T14 construct: CEREP (CRO, Safety47 panel)
Description: Safety47 panel kinase LCK. It counts as biochemical. Conditions: Inhibitor mode; 3 μM.
From the text: as §1

The test system of a further data set is 47 human targets. Description: CEREP Safety47 panel (summary). The note with it: 3 μM.
From the text: as §1

Another data set deals with Potassium Channel hERG (Homo sapiens, UniProt Q12809).
[5] abbreviates: Tables 5-13, PC12 cells, read-out: EC50.
Where [6] appears, read: rescue from mHTTQ103 induced cell death.
[7] abbreviates: Tables 5-13, solvent not given (DMSO in Table 1).

Structures are written as SMILES. Values after ≈ are worked out from the molar mass of the structure shown. Values joined by “and” are separate entries in the source; they are usually repeats but may differ in a detail not shown here. Equal values may be shown once. Read-outs that look alike come from different tables or passages of the source. Bounds are passed on as bounds.

T9 sequence (Q13224 27-1484, other chains not shown): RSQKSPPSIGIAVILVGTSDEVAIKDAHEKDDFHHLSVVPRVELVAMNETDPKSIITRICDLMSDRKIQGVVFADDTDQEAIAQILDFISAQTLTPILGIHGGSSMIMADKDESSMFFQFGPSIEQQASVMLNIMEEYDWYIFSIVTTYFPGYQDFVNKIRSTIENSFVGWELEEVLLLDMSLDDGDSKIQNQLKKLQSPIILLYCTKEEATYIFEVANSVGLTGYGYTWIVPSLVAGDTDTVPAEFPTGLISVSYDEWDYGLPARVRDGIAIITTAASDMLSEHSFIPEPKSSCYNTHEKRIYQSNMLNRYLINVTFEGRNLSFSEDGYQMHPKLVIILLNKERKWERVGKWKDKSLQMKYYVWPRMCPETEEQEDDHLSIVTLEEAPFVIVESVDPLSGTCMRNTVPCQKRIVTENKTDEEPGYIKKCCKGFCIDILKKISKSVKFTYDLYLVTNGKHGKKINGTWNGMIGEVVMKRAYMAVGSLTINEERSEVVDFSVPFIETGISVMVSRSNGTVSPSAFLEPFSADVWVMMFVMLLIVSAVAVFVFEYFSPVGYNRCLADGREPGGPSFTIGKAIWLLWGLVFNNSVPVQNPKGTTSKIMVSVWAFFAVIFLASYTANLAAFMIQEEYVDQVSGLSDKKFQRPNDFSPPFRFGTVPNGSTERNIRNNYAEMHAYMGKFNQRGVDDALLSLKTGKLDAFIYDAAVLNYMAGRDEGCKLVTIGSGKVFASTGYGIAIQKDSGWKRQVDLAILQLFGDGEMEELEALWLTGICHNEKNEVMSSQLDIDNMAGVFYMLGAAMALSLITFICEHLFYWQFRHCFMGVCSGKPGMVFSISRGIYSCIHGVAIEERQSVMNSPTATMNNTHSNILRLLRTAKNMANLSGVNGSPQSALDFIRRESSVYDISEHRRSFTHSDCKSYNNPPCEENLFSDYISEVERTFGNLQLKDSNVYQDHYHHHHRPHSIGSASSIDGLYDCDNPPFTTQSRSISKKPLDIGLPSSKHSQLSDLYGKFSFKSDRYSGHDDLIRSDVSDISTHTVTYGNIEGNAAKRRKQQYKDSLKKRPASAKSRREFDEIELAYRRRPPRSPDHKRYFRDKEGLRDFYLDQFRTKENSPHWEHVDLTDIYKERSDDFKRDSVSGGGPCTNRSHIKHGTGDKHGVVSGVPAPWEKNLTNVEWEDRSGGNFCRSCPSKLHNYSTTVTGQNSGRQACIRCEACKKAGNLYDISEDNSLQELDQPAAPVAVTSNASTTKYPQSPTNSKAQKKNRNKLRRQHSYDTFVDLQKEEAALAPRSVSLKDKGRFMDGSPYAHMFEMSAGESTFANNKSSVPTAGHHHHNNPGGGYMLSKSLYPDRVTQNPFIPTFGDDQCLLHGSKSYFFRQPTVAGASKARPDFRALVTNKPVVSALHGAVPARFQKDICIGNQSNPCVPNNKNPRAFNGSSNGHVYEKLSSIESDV
T3 sequence (P08172 whole entry): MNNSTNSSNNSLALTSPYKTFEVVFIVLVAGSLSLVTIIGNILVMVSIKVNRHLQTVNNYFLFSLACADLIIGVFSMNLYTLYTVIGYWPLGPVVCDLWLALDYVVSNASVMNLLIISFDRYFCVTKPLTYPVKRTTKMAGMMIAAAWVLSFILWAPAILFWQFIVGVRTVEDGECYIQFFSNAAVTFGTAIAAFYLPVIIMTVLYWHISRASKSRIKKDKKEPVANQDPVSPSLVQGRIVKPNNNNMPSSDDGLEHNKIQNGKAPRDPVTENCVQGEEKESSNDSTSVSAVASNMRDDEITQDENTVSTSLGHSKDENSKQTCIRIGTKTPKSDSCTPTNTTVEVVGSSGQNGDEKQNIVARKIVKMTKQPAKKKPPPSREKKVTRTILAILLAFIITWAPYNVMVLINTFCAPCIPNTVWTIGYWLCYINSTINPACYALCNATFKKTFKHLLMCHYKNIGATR
T7 sequence (P43681 29-627 limits assumed): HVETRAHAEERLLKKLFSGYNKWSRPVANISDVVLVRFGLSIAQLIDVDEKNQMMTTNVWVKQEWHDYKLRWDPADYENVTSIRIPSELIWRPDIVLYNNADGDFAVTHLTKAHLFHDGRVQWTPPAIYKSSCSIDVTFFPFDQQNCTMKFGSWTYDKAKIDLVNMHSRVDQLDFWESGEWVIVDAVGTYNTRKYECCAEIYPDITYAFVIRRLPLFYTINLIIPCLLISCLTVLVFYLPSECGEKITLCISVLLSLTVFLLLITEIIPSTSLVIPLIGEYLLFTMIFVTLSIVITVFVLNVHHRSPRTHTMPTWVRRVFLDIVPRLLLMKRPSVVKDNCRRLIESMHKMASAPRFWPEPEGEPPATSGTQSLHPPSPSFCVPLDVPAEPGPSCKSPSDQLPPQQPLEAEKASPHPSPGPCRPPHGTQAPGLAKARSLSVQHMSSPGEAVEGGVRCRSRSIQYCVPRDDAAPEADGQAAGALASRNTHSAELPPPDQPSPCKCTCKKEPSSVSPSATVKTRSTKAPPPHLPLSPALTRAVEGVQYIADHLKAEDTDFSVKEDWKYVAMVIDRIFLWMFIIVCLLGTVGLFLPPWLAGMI
T7 sequence (P17787 26-502): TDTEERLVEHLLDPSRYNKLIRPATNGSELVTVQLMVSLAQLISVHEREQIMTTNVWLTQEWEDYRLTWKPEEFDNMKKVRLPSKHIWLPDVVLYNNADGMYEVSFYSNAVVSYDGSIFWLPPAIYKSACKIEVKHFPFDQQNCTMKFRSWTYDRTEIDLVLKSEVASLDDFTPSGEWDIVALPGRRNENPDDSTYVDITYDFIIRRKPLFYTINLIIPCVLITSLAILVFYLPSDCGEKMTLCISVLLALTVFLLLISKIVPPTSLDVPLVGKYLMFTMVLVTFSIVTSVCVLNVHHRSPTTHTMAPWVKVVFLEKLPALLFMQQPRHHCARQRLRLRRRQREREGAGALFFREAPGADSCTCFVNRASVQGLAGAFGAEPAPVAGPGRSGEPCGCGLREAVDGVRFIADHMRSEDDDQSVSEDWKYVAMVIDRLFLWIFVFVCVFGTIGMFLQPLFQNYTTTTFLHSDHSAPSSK
T4 sequence (P10275 whole entry): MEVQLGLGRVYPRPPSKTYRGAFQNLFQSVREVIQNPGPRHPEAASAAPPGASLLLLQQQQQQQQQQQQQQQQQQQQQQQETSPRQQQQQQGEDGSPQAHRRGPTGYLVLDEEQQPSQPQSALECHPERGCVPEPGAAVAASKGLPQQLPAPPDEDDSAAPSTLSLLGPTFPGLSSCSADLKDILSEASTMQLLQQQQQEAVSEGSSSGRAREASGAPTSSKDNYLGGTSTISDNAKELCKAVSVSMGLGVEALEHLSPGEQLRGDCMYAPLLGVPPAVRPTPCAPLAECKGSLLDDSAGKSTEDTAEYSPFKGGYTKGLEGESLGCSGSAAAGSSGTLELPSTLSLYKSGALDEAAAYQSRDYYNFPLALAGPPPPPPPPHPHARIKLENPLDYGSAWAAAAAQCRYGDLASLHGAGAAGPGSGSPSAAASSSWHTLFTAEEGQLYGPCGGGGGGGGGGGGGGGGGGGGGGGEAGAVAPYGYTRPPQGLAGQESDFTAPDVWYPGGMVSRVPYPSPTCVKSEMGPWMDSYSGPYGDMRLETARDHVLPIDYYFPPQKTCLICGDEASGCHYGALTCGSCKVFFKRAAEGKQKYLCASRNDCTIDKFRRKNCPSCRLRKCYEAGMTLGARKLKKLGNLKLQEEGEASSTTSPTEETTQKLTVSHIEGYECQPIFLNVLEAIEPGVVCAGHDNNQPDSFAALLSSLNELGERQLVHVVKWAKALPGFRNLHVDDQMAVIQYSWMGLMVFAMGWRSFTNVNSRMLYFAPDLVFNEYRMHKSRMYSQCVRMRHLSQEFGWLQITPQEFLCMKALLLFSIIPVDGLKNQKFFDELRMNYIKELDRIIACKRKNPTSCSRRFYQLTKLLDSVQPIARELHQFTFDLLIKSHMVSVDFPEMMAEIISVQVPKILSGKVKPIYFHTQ
T2 sequence (P29274 whole entry): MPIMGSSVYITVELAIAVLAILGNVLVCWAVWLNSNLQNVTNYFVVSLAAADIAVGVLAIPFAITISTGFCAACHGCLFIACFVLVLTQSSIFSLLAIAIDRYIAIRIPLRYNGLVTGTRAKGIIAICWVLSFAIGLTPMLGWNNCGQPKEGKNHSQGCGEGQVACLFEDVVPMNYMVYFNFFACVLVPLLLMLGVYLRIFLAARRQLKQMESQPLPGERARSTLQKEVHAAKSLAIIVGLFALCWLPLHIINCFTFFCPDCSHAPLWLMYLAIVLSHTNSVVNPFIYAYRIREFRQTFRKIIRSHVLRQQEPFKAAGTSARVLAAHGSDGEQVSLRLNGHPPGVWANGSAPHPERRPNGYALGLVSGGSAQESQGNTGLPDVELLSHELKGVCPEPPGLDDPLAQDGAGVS
T10 sequence (P22303 32-614): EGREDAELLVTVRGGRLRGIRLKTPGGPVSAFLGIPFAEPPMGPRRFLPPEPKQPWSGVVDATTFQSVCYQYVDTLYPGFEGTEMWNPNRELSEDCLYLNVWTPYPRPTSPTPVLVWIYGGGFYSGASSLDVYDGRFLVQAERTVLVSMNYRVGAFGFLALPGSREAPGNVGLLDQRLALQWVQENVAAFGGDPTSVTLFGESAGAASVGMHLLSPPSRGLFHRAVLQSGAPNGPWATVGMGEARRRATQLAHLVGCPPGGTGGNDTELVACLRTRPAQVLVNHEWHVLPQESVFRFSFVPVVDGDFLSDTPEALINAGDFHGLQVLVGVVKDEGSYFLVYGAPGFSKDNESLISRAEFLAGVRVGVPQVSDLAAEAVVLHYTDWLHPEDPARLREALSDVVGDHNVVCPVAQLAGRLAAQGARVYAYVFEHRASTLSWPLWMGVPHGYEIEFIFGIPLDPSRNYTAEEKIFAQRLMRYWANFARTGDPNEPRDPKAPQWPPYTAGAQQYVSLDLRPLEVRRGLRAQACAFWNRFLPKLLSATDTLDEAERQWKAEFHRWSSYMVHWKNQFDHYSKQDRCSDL
T1 sequence (P07237 18-134): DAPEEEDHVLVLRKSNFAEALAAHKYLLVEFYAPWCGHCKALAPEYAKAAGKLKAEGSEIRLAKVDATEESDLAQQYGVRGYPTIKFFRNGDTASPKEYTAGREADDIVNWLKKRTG

With `O=C(C1CC1)N1CCN(Cn2sc3c(F)cccc3c2=O)CC1` [LC-43], in the data set with PC12 mHTTQ103 cells (setting [5]), the EC50 came out at 7410 nM. Also, the “Max Viability (%)” value in the data set on PC12 mHTTQ103 cells (Tables 5-13, PC12 cells) is on record as 56%. Besides, the “PC12 cells Max % Viability” value in the data set with PC12 mHTTQ103 cells (setting [6]) came out at 56.48%. Further, the “change in mass of wild-type PDIa (MALDI-TOF)” value on wild-type PDIa was “no change in mass”. Further, the “neuronal redox state (roGFP2)” value is “no effect” in data set [1] (30 min treatment); “measurable and significant reduction in neuronal redox state” in [1] (24 h treatment, 10 μM). Besides, the values for the Solubility in data set [2] and in data set [2] (setting [7]) were 100 mM in DMSO and 100 mM (≈ 33.5 mg/mL), respectively.
Take `O=C(C1CC1)N1CCN(Cn2sc3ccccc3c2=O)CC1` [LOC14]: the EC50 is 352 nM in the data set on PC12 mHTTQ103 cells (setting [5]) and 352 nM with PC12 mHTTQ103 cells (rescue from mHTTQ103 induced cell death, read-out: PC12 cells EC50). Further, the “Max Viability (%)” value in the data set on PC12 mHTTQ103 cells (Tables 5-13, PC12 cells) worked out at 66%. Also, the EC100 with PC12 mHTTQ103 cells (protection from mHTT toxicity, FIG. 13A) came to 3.1 µM. The “PC12 cells Max % Viability” value in the data set with PC12 mHTTQ103 cells (setting [6]) turned out to be 66.25%. Also, the inhibition at 3 µM was 8% against Adenosine A1; 34% against Dopamine D1; -1% at Opiate (OP3, MOP); 36% in data set [3]. Further, the “Average % Response” value came to 2.6% on ADORA2A (Agonist mode) and 2.4% on ADORA2A (Antagonist mode). In addition, the “activity (response) against muscarinic acetylcholine receptor M2” value in [4] is < 95% and 70%. The Average on AR (Agonist mode) is listed as 0.0; on AR (Antagonist mode), 5.4; at DAT it was 0.0; on hERG it was 5.9; at nAChR(a4/b2) (Blocker mode), 10.1; at nAChR(a4/b2) (Opener mode), 0.0. In addition, the Average at NAV1.5 is recorded as 7.0; on NMDAR (1A/2B) (Blocker mode) it was 0.0; at NMDAR (1A/2B) (Opener mode), 1.7; on AChE, 2.8; on COX1 it was 1.4; at MAOA it was 9.9. In addition, the values for the Average at PDE4D2 and on LCK were 0.0 and 16.1, respectively. Moreover, in the data set with 47 human targets, the “off-target effects in Safety47 panel” value is “no significant off-target effects”. For the same molecule, the “binding to the hERG receptor” value on Potassium Channel hERG is “does not bind to the hERG receptor”. The values for the Solubility in data set [2] and in data set [2] (setting [7]) were 100 mM in DMSO and 100 mM (≈ 31.7 mg/mL), respectively.
